Results reported in PubChem BioAssay (NCI).
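Cultured in 96-well plates, cells were exposed to test compound for 48 hours across five concentrations. GI50 = concentration required for 50% inhibition of growth. TGI is the concentration that stops growth completely.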

Legend:
Assay in all cases: DTP human tumour cell line panel, 48 h
[1] = system: BT-549 breast
[2] = system: NCI-H460 lung
[3] = system: UO-31 renal
[4] = system: EKVX NSCLC
[5] = system: A549 NSCLC
[6] = system: SW-620 colon
[7] = system: SNB-19 CNS
[8] = system: SK-MEL-28 melanoma
[9] = system: ACHN renal
[10] = system: SK-OV-3 ovarian
[11] = system: HOP-62 NSCLC
[12] = system: NCI-H226 lung
[13] = system: SK-MEL-5 melanoma
[14] = system: SK-MEL-2 melanoma
[15] = system: MDA-MB-435
[16] = system: CAKI-1 renal
[17] = system: IGROV1 ovarian
[18] = system: HCT-15 colon
[19] = system: U251 CNS
[20] = system: OVCAR-5 ovarian
[21] = system: OVCAR-3 ovarian
[22] = system: UACC-257 melanoma
[23] = system: MDA-MB-231 breast
[24] = system: CCRF-CEM leukemia
[25] = system: RXF 393 renal
[26] = system: A498 renal
[27] = system: NCI-H23 lung
[28] = system: NCI-H522 lung
[29] = system: SF-539 CNS
[30] = system: HCC-2998 colon
[31] = system: NCI/ADR-RES ovarian
[32] = system: MALME-3M melanoma
[33] = system: SF-295 CNS
[34] = system: KM12 colon
[35] = system: OVCAR-4 ovarian
[36] = system: SNB-75 CNS
[37] = system: M14 melanoma
[38] = system: RPMI-8226 leukemia
[39] = system: HOP-92 NSCLC
[40] = system: LOX IMVI melanoma
[41] = system: MCF7 breast
[42] = system: SR leukemia
[43] = system: MOLT-4 leukemia
[44] = system: HCT-116 colon
[45] = system: OVCAR-8 ovarian
[46] = system: PC-3 prostate
[47] = system: UACC-62 melanoma
[48] = system: DU-145 prostate
[49] = system: COLO 205 colon
[50] = system: SN12C renal
[51] = system: T-47D breast
[52] = system: TK-10 renal
[53] = system: HS 578T breast
[54] = system: SF-268 CNS

CC(C)C(=O)Nc1ccc(-c2nc(-c3cccc(OCCN4CCOCC4)c3)c(-c3ccnc(Br)c3)[nH]2)cc1
GI50 [1]: 2820 nM | TGI [1]: 17.3 µM | GI50 [2]: 3.98 µM | TGI [2]: 25.4 µM | GI50 [3]: 2360 nM | TGI [3]: 7.23 µM | GI50 [4]: 4.01 µM | TGI [4]: > 100 µM | GI50 [5]: 3.73 µM | TGI [5]: > 100 µM | GI50 [6]: 2870 nM | TGI [6]: 8.59 µM | GI50 [7]: 3.46 µM | TGI [7]: > 100 µM | GI50 [8]: 1980 nM | TGI [8]: 5.02 µM | GI50 [9]: 3.87 µM | TGI [9]: 94.1 µM | GI50 [10]: 2450 nM | TGI [10]: 5.53 µM | GI50 [11]: 2940 nM | TGI [11]: 14.5 µM | GI50 [12]: 3.79 µM | TGI [12]: 19.8 µM | GI50 [13]: 1790 nM | TGI [13]: 3.25 µM | GI50 [14]: 2210 nM | TGI [14]: 5.54 µM | GI50 [15]: 2920 nM | TGI [15]: 10 µM | GI50 [16]: 2300 nM | TGI [16]: 7.01 µM | GI50 [17]: 3.75 µM | TGI [17]: > 100 µM | GI50 [18]: 2020 nM | TGI [18]: 4.67 µM | GI50 [19]: 2270 nM | TGI [19]: 14.5 µM | GI50 [20]: 6.42 µM | TGI [20]: > 100 µM | GI50 [21]: 4.24 µM | TGI [21]: > 100 µM | GI50 [22]: 2370 nM | TGI [22]: 5.68 µM | GI50 [23]: 3.66 µM | TGI [23]: > 100 µM | GI50 [24]: 3.27 µM | TGI [24]: > 100 µM | GI50 [25]: 1240 nM | TGI [25]: 2910 nM | GI50 [26]: 1600 nM | TGI [26]: 4.74 µM | GI50 [27]: 3.12 µM | TGI [27]: 18 µM | GI50 [28]: 3.26 µM | TGI [28]: 48.7 µM | GI50 [29]: 2300 nM | TGI [29]: 8.65 µM | GI50 [30]: 3.21 µM | TGI [30]: 11.4 µM | GI50 [31]: 6.23 µM | TGI [31]: > 100 µM | GI50 [32]: 1580 nM | TGI [32]: 3.3 µM | GI50 [33]: 1090 nM | TGI [33]: 2880 nM | GI50 [34]: 3.2 µM | TGI [34]: > 100 µM | GI50 [35]: 4.46 µM | TGI [35]: > 100 µM | GI50 [36]: 647 nM | TGI [36]: 4.28 µM | GI50 [37]: 1930 nM | TGI [37]: 4.46 µM | GI50 [38]: 1090 nM | TGI [38]: 4 µM | GI50 [39]: 2320 nM | TGI [39]: 7.68 µM | GI50 [40]: 1700 nM | TGI [40]: 3.57 µM | GI50 [41]: 1890 nM | TGI [41]: 4.92 µM | GI50 [42]: 1830 nM | TGI [42]: 7.09 µM | GI50 [43]: 2310 nM | TGI [43]: > 100 µM | GI50 [44]: 3.04 µM | TGI [44]: 13.5 µM | GI50 [45]: 4.16 µM | TGI [45]: > 100 µM | GI50 [46]: 3.08 µM | TGI [46]: 14.5 µM | GI50 [47]: 2100 nM | TGI [47]: 5.71 µM | GI50 [48]: 4.48 µM | TGI [48]: > 100 µM | GI50 [49]: 2420 nM | TGI [49]: 6.59 µM | GI50 [50]: 4.46 µM | TGI [50]: > 100 µM | GI50 [51]: 2680 nM | TGI [51]: 34.2 µM | GI50 [52]: 4.32 µM | TGI [52]: 31.3 µM | GI50 [53]: 1040 nM | TGI [53]: 3.69 µM | GI50 [54]: 4.26 µM | TGI [54]: > 100 µM
